Among the data in publication PMC11864979, “First-in-class ultralong-target-residence-time p38α inhibitors as a mitosis-targeted therapy for colorectal cancer” (Nature Cancer, 2025) are remaining activity values, retold here.

Like-named read-outs stand apart in the source and are kept apart here.

What all share (assay): selectivity profiling in a panel of 340 wild-type kinases (Reaction Biology Europe)
Holding throughout (type): binding

For assay [1], the target named is T1, 340 wild-type kinases (Homo sapiens, UniProt O00444).
T1 construct: purchased Reaction Biology Europe
T1 sequence (O00444 1-970): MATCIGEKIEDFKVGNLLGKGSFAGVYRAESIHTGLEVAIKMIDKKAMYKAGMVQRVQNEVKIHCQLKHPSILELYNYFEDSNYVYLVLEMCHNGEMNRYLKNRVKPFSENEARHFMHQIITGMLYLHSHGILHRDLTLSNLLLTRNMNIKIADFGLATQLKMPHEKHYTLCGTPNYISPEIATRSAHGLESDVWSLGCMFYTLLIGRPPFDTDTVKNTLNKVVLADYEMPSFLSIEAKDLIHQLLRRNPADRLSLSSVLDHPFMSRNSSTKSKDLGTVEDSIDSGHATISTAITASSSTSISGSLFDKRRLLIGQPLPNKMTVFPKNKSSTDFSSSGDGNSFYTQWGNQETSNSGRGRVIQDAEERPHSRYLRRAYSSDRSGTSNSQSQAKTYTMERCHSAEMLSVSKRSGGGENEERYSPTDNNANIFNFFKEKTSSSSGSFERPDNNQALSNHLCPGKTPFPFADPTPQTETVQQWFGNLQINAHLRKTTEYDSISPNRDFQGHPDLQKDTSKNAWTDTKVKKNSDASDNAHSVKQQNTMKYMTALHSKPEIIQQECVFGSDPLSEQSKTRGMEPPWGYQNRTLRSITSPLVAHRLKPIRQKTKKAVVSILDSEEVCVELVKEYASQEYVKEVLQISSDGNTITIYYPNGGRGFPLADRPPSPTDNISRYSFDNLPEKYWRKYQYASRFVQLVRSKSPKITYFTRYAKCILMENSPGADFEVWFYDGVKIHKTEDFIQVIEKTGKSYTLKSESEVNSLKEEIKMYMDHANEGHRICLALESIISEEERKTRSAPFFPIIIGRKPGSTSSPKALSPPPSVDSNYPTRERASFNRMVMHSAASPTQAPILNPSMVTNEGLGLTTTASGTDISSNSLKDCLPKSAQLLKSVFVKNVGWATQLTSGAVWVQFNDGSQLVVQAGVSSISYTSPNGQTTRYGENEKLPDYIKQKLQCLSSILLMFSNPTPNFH

Assay [2] deals with T2, 340 wild-type kinases (Homo sapiens, UniProt Q9UPE1).
T2 construct: purchased Reaction Biology Europe
T2 sequence (Q9UPE1 whole entry): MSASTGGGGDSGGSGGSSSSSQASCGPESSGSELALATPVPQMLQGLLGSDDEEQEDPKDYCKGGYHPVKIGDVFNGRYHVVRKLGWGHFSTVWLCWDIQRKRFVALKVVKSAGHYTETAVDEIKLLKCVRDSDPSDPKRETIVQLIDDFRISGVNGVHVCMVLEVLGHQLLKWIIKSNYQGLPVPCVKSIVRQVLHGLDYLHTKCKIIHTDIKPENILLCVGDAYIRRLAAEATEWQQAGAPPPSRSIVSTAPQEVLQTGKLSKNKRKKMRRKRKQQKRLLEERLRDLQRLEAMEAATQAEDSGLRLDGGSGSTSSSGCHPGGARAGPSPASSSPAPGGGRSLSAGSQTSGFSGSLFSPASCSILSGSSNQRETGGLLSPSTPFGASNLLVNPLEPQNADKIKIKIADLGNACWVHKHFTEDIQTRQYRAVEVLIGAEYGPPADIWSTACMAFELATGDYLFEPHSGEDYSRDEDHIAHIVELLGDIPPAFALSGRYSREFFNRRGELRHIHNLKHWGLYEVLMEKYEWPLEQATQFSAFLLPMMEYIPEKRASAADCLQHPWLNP

The target of assay [3] is T3, 340 wild-type kinases (Homo sapiens, UniProt Q13470).
T3 construct: purchased Reaction Biology Europe
T3 sequence (Q13470 1-666): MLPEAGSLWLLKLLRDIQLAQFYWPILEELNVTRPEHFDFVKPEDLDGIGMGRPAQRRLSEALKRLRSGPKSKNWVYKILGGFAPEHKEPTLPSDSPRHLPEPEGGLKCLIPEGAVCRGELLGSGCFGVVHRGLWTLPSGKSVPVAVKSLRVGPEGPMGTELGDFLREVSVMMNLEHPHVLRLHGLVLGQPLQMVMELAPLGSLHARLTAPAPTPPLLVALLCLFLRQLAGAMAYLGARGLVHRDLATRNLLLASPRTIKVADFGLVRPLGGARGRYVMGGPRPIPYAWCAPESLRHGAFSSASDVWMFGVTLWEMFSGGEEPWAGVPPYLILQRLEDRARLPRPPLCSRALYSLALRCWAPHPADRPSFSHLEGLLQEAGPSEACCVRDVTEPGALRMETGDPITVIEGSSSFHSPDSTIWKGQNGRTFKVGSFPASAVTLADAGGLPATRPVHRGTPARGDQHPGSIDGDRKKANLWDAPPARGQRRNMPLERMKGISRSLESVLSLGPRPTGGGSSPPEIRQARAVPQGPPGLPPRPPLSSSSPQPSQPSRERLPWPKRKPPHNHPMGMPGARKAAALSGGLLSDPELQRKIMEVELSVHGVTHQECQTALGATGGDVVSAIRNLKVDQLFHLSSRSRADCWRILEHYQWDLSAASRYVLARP

Assay [4] concerns the target T4, 340 wild-type kinases (Homo sapiens, UniProt Q16566).
T4 construct: purchased Reaction Biology Europe
T4 sequence (Q16566 1-473): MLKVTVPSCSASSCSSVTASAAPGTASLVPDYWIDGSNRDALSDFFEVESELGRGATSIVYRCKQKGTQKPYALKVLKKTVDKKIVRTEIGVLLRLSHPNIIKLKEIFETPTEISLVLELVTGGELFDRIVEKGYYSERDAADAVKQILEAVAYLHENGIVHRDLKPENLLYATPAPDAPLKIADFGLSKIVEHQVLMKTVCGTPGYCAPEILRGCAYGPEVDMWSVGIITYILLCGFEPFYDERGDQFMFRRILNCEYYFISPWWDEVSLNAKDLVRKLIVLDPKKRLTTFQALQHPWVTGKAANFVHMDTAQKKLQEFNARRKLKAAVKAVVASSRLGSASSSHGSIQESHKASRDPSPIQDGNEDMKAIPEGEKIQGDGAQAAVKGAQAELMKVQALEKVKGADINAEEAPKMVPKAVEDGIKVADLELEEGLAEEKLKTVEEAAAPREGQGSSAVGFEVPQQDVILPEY

With `CNC(=O)c1ccc2c(c1)C(=O)c1ccc(Nc3ccc(F)c(NC(=O)C4CC4)c3)cc1CC2` [Compound 2015], the remaining activity at 0.2 µM in assay [1] (0.2 µM 2015, read-out: SAK residual activity) was 103%; in assay [1] (SAK, 0.2 µM, read-out: residual activity), 103%; in assay [2] (0.2 µM 2015, read-out: STK23 residual activity), 90.7%; in assay [2] (STK23, 0.2 µM, read-out: residual activity) it was 90.7%; in assay [3] (0.2 µM 2015, read-out: TNK1 residual activity), 92.8%; in assay [3] (TNK1, 0.2 µM, read-out: residual activity), 92.8%. Also, the remaining activity at 0.2 µM was 92.7% in assay [4] (0.2 µM 2015, read-out: CAMK4 residual activity) and 92.7% in assay [4] (CAMK4, 0.2 µM, read-out: residual activity). The remaining activity at 1 µM in assay [1] (1 µM 2015, read-out: SAK residual activity) turned out to be 104%; in assay [1] (SAK, 1 µM, read-out: residual activity), 104%; in assay [2] (1 µM 2015, read-out: STK23 residual activity) it was 94.1%; in assay [3] (1 µM 2015, read-out: TNK1 residual activity) it was 85.3%; in assay [3] (TNK1, 1 µM, read-out: residual activity), 85.3%; in assay [4] (1 µM 2015, read-out: CAMK4 residual activity), 94.1%. For the same compound, the remaining activity at 1 µM in assay [4] (CAMK4, 1 µM, read-out: residual activity) worked out at 94.2%.
